Measured values as given in patent US20130157953A1, “TREATMENT OF CARDIAC CONDITIONS” (Zealand Pharma A/S, priority 2010, published 2013).
Numbered stars: 1 amine (or outer) side, 2 acyl side, 3 side chain; on linkers, the order of the positions; unused ones are H or OH. Square brackets hold non-standard residues; d marks the D form. Side chains are listed from the residue outwards. Ends that are not written are not given here. Peptide text beside a SMILES is read from it. * marks the point of attachment. γGlu = O=C(O)[C@H](CCC(=O)[*:2])N[*:1]; Palmitoyl = CCCCCCCCCCCCCCCC(=O)*; Aib = CC(C)(N)C(=O)O

Experiments:
[1] = tested on: anesthetized male Sprague-Dawley rats; assay: Inotropic effect in vivo in anaesthetized rats (stroke work, heart rate); conditions: for heart rate / increase in strokework: i.v. infusion; for heart rate: 0.2 and 0.5 nmol/kg/min; for increase in strokework: at a given infusion rate (up to 2.5 nmol/kg/min), 40% set as end point
From the text: The rats were exposed to 5% isoflurane in 1:2 N2O:O2 until anesthesia were established.
A catheter was inserted into the left femoral vein for drug administration and a pressure-volume catheter was inserted into the left ventricle via the right carotid artery. After instrumentation, isoflurane was delivered in pure O2 during the experiment.
The horizontal line marks 40% increase in stroke work, which was defined as the maximal increase that should be obtained during the experiment.

human glucagon receptor = target: T1, human glucagon receptor (Homo sapiens, UniProt P47871); assay: cAMP formation in HEK293 cells expressing the human glucagon receptor; format: cell-based; conditions: 15 min at 37° C., read-out: EC50 (nM) GuR
T1 construct: expressed in transfected cells; host or cells: HEK293
T1 sequence (P47871 26-477): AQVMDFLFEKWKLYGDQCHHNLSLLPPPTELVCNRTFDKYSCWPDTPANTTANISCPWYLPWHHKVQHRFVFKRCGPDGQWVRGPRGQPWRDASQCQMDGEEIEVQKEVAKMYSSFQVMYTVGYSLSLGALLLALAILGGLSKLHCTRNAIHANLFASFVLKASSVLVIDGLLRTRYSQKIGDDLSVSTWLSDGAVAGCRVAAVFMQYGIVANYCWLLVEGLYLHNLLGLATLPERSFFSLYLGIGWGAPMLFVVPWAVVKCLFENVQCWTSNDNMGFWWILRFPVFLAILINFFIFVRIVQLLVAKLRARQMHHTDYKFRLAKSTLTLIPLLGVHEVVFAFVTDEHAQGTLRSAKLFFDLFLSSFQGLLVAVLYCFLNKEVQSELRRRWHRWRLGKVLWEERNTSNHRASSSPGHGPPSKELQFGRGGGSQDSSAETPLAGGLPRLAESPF
From the text: (§1) Similarly, activation of the GLP-1 receptor by a GLP-1 agonist will stimulate cellular cAMP formation. Thus, production of cAMP in suitable cells expressing one of these two receptors can be used to monitor the relevant receptor activity.
(§2) The skilled person will be aware of suitable assay formats, and examples are provided below. […] (Where sequences of precursor proteins are referred to, it should of course be understood that assays may make use of the mature protein, lacking the signal sequence).
(§3) On the day of analysis, growth medium was removed and the cells washed once with 200 μl Tyrode buffer. Cells were incubated in […] containing increasing concentrations of test peptides, 100 μM IBMX, and 6 mM glucose for 15 min at 37° C. The reaction was stopped by addition of 25 μl 0.5 M HCl and incubated on ice for 60 min. The cAMP content was estimated using the FlashPlate® cAMP kit from Perkin-Elmer. EC50 values were estimated by computer aided curve fitting.

human GLP-1R = target: T2, human GLP-1R (Homo sapiens, UniProt P43220); assay: cAMP formation in HEK293 cells expressing human GLP-1R; format: cell-based; conditions: 15 min at 37° C.
T2 construct: expressed in transfected cells; host or cells: HEK293
T2 sequence (P43220 24-463): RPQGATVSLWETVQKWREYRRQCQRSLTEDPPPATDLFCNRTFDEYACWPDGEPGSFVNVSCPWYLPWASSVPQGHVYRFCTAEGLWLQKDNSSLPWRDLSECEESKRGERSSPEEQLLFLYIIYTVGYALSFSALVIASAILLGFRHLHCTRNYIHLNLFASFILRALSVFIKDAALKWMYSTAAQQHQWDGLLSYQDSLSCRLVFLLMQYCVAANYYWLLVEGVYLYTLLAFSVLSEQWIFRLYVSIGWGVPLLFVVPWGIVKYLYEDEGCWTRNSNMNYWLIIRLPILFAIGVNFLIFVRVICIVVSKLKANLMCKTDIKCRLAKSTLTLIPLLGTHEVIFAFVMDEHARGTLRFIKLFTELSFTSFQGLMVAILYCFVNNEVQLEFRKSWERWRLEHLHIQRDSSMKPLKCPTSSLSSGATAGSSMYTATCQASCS
From the text: as §1, §2, §3

[2] = tested on: isolated working hearts from control and insulin-resistant JCR:LA-cp rats; assay: Inotropic effect and energy state in isolated working heart model; parameters: species or system rat; conditions: compared with vehicle perfused hearts
Method: Following perfusions, high energy phosphate nucleotide concentrations were measured by high performance liquid chromatography (HPLC) (Ally, A and Park, G. Rapid determination of creatine, phosphocreatine, purine bases and nucleotides (ATP, ADP, AMP, GTP, GDP) in heart biopsies by gradient ion-pair reversed-phase liquid chromatography. Journal of Chromatography. 1992; 575: 19-27).

Row | Compound | EC50 (human glucagon receptor) | EC50 (human GLP-1R) | other results
1 | CC[C@H](C)[C@H](NC(=O)[C@H](Cc1ccccc1)NC(=O)[C@H](CC(=O)O)NC(=O)[C@H](CCCCN)NC(=O)[C@H](C)NC(=O)[C@H](CCCNC(=N)N)NC(=O)[C@H](CCCNC(=N)N)NC(=O)[C@H](CCC(=O)O)NC(=O)[C@H](CC(=O)O)NC(=O)[C@H](CC(C)C)NC(=O)[C@H](Cc1ccc(O)cc1)NC(=O)[C@H](CCCCN)NC(=O)[C@H](CO)NC(=O)[C@H](Cc1ccc(O)cc1)NC(=O)[C@H](CC(=O)O)NC(=O)[C@H](CO)NC(=O)[C@@H](NC(=O)[C@H](Cc1ccccc1)NC(=O)[C@@H](NC(=O)CNC(=O)[C@H](CCC(N)=O)NC(=O)[C@H](CO)NC(=O)[C@@H](N)Cc1c[nH]cn1)[C@@H](C)O)[C@@H](C)O)C(=O)N[C@@H](CCC(=O)O)C(=O)N[C@@H](Cc1c[nH]c2ccccc12)C(=O)N[C@@H](CC(C)C)C(=O)N[C@@H](CC(C)C)C(=O)N[C@@H](CO)C(=O)N[C@@H](C)C(N)=O [Compound 35] | – | – | heart rate [1]: tendency
2 | CCCCCCCCCCCCCCCC(=O)N[C@@H](CCC(=O)NCCCC[C@H](NC(=O)[C@H](CO)NC(=O)[C@H](CC(=O)O)NC(=O)[C@H](CC(C)C)NC(=O)[C@H](Cc1ccc(O)cc1)NC(=O)[C@H](CCCCN)NC(=O)[C@H](CO)NC(=O)[C@H](Cc1ccc(O)cc1)NC(=O)[C@H](CC(=O)O)NC(=O)[C@H](CO)NC(=O)[C@@H](NC(=O)[C@H](Cc1ccccc1)NC(=O)[C@@H](NC(=O)CNC(=O)[C@H](CCC(N)=O)NC(=O)C(C)(C)NC(=O)[C@@H](N)Cc1c[nH]cn1)[C@@H](C)O)[C@@H](C)O)C(=O)N[C@@H](C)C(=O)N[C@@H](C)C(=O)N[C@@H](Cc1c[nH]cn1)C(=O)N[C@@H](CC(=O)O)C(=O)N[C@@H](Cc1ccccc1)C(=O)N[C@H](C(=O)N[C@@H](CCC(=O)O)C(=O)N[C@@H](Cc1c[nH]c2ccccc12)C(=O)N[C@@H](CC(C)C)C(=O)N[C@@H](CC(C)C)C(=O)N[C@@H](CCCNC(=N)N)C(=O)N[C@@H](C)C(N)=O)C(C)C)C(=O)O [Compound 206] (H-H[Aib]QGTFTSDYSKYLDSK([γGlu-Palmitoyl])AAHDFVEWLLRA-NH2) | 0.16 nM | 0.09 nM | duration of strokework increase ([1]; after end of compound infusion, during final vehicle infusion): prolonged increase in strokework that outlasted the compound infusion; increase in strokework [1]: 40%
3 | CCCCCCCCCCCCCCCC(=O)N[C@@H](CCC(=O)NCCCC[C@H](NC(=O)[C@H](CCC(=O)O)NC(=O)[C@H](CC(=O)O)NC(=O)[C@H](CC(C)C)NC(=O)[C@H](Cc1ccc(O)cc1)NC(=O)[C@H](CCCCN)NC(=O)[C@H](CO)NC(=O)[C@H](Cc1ccc(O)cc1)NC(=O)[C@H](CC(=O)O)NC(=O)[C@H](CO)NC(=O)[C@@H](NC(=O)[C@H](Cc1ccccc1)NC(=O)[C@@H](NC(=O)CNC(=O)[C@H](CCC(N)=O)NC(=O)C(C)(C)NC(=O)[C@@H](N)Cc1c[nH]cn1)[C@@H](C)O)[C@@H](C)O)C(=O)N[C@@H](CCCNC(=N)N)C(=O)N[C@@H](C)C(=O)N[C@@H](CCCCN)C(=O)N[C@@H](CC(=O)O)C(=O)N[C@@H](Cc1ccccc1)C(=O)N[C@H](C(=O)N[C@@H](CCC(=O)O)C(=O)N[C@@H](Cc1c[nH]c2ccccc12)C(=O)N[C@@H](CC(C)C)C(=O)N[C@@H](CC(C)C)C(=O)N[C@@H](CO)C(=O)N[C@@H](C)C(N)=O)[C@@H](C)CC)C(=O)O [Compound 263] (H-H[Aib]QGTFTSDYSKYLDEK([γGlu-Palmitoyl])RAKDFIEWLLSA-NH2) | 0.16 nM | 0.1 nM | –
4 | H-HSQGTFTSDYSKYLDKRRAEDFVWLMNT-NH2 [Compound 256] | 0.07 nM | 0.2 nM | –
5 | H-HSQGTFTSDYSKYLDRARADDFVAWLKST-NH2 [Compound 12] | – | – | energetic state of the hearts [2]: not significantly different from vehicle perfused hearts
6 | H-HSQGTFTSDYSKYLDSRAAQDFVWLMNT-NH2 [Compound 246] | 0.05 nM | 0.3 nM | –
7 | H-HSQGTFTSDYSKYLDSRHAQDFVWLMNT-NH2 [Compound 244] | 0.05 nM | 0.5 nM | –
8 | H-HSQGTFTSDYSRYLDSRRAQDFVWLLNT-NH2 [Compound 253] | 0.1 nM | 0.2 nM | –
9 | HSQGTFTSDYSKYLDRARADDFVAWLERA [Compound 9] | – | – | increase in strokework [1]: 40%
10 | HSQGTFTSDYSKYLDSKAARDFVRWLKLA-NH2 [Compound 37] | – | – | heart rate [1]: tendency

The next lines start with results.

Row | EC50 (human glucagon receptor) | EC50 (human GLP-1R) | Compound | other results
11 | 0.1 nM | 0.24 nM | H-HSQGTFTSDYSKYLDSALAQDFVWLLNT-NH2 [Compound 255] | –
12 | 0.05 nM | 0.1 nM | H-HSQGTFTSDYSKYLDSRSAQDFVWLMNT-NH2 [Compound 245] | –
13 | 0.1 nM | 0.3 nM | H-HSQGTFTSDYSKYLDSRYAQDFVWLMNT-NH2 [Compound 247] | –
14 | 0.2 nM | 0.2 nM | H-HSQGTFTSDYSRYLDSRRAQDFVWLLNK-NH2 [Compound 254] | –
